Reference: patent US4803266A, “3-Oxoalkylidene-2-azetidinone derivatives” (Taisho Pharmaceutical Co., Ltd., priority 1986, dated 1989)

How the values were obtained:
[1] = tested on: blood platelet aggregation; test: Blood platelet aggregation inhibition in vitro in rabbit PRP, ADP induced; assay type: cell-based, male, New Zealand strain house rabbit; conditions: Oryctolagus cuniculus, ADP final concentration 5 μM, 37° C., 3 minutes preincubation, 50% inhibition of maximum aggregation rate
Description: (§1) Citrated blood (one volume of 3.2% sodium citrate; 9 volumes of blood) was collected from carotid artery of male, New Zealand strain house rabbit, centrifuged at 150 g for 15 minutes to give platelet rich plasma (PRP) as a supernatant, and the remaining blood was centrifuged at 1500 g for 10 minutes to give platelet poor plasma (PPP) as a supernatant. The platelet count of PRP was adjusted to 50-60×10^4 /μl by dilution of PPP. Blood platelet aggregation was carried out according to the method of Born [Born, G. V. R., Nature, 194, 927 (1962)]. Namely, 25 μl of the test drug, (all the test drugs were dissolved in dimethyl sulfoxide and adjusted to the desired concentration with physiological saline solution), was added to 250 μl of PRP, and the mixture was incubated at 37° C. for 3 minutes. 25 μl of the aggregation inducing substance [adenosine diphosphate (ADP); final concentration 5 μM or collagen: final concentration 5 μg/ml] was added, the mixture was measured for 5 minutes by blood platelet aggregation ability measurement apparatus (Aggricoda TM-PA-3210, Kyoto Dai-ichi Kagaku) to obtain the maximum aggregation rate, and there was calculated the concentration of the test drug (ICP50) which brings about 50% inhibition to the maximum aggregation rate obtained by adding the aggregation inducing substance to PRP containing the solvent only.
(§2) The compound numbers in Table 1 correspond to those in the Examples described below.

[2] = tested on: blood platelet aggregation; test: Blood platelet aggregation inhibition in vitro in rabbit PRP, collagen induced; assay type: cell-based, male, New Zealand strain house rabbit; conditions: Oryctolagus cuniculus, collagen final concentration 5 μg/ml, 37° C., 3 minutes preincubation, 50% inhibition of maximum aggregation rate
Description: as §1, §2

## CC(=O)/C=C1/C(=O)N(c2ccccc2)C1c1ccccc1 (stereo not drawn) [Compound 1, (E)-3-(2-oxopropylidene)-1,4-diphenyl-2-azetidinone]
[1]
  IC50: 33 µM
[2]
  IC50: 14 µM

## CCC(=O)/C=C1/C(=O)N(c2ccccc2)C1c1ccccc1 (stereo not drawn) [Compound 2]
[1]
  IC50: 28 µM
[2]
  IC50: 32 µM

## O=C(/C=C1/C(=O)N(c2ccccc2)C1c1ccccc1)c1ccccc1 (stereo not drawn) [Compound 4]
[1]
  IC50: 13 µM
[2]
  IC50: 16 µM

## Cc1ccc(C(=O)/C=C2/C(=O)N(c3ccccc3)C2c2ccccc2)cc1 (stereo not drawn) [Compound 5]
[1]
  IC50: 24 µM
[2]
  IC50: 23.5 µM

## COc1ccc(C(=O)/C=C2/C(=O)N(c3ccccc3)C2c2ccccc2)cc1 (stereo not drawn) [Compound 6]
[1]
  IC50: 24 µM
[2]
  IC50: 18 µM

## COc1ccc(C(=O)/C=C2/C(=O)N(c3ccccc3)C2c2ccccc2)c(OC)c1 (stereo not drawn) [Compound 7]
[1]
  IC50: 12 µM
[2]
  IC50: 23 µM

## O=C(/C=C1/C(=O)N(c2ccccc2)C1c1ccccc1)c1ccc(F)cc1 (stereo not drawn) [Compound 8]
[1]
  IC50: 9.2 µM
[2]
  IC50: 13.6 µM

## O=C(/C=C1/C(=O)N(c2ccccc2)C1c1ccccc1)c1ccc(Cl)cc1 (stereo not drawn) [Compound 9]
[1]
  IC50: 15 µM
[2]
  IC50: 12 µM

## O=C(/C=C1/C(=O)N(c2ccccc2)C1c1ccccc1)c1ccc(Br)cc1 (stereo not drawn) [Compound 10]
[1]
  IC50: 36 µM
[2]
  IC50: 26 µM

## O=C(/C=C1/C(=O)N(c2ccccc2)C1c1ccccc1)c1ccc(-c2ccccc2)cc1 (stereo not drawn) [Compound 11]
[1]
  IC50: > 30 µM
[2]
  IC50: 22 µM

## O=C(/C=C1/C(=O)N(c2ccccc2)C1c1ccccc1)c1ccc([N+](=O)[O-])cc1 (stereo not drawn) [Compound 12]
[1]
  IC50: 5.6 µM
[2]
  IC50: 4.7 µM

## CCOC(=O)CC(=O)/C=C1/C(=O)N(c2ccccc2)C1c1ccccc1 (stereo not drawn) [Compound 15]
[1]
  IC50: 21.5 µM
[2]
  IC50: 16.6 µM

## COc1ccc(C(=O)/C=C2/C(=O)N(c3ccccc3C)C2c2ccccc2)cc1 (stereo not drawn) [Compound 16]
[1]
  IC50: 12.5 µM
[2]
  IC50: 4.1 µM

## Cc1ccccc1N1C(=O)/C(=C/C(=O)c2ccc(F)cc2)C1c1ccccc1 (stereo not drawn) [Compound 17]
[1]
  IC50: 7.7 µM
[2]
  IC50: 5 µM

## Cc1ccccc1N1C(=O)/C(=C/C(=O)c2ccc([N+](=O)[O-])cc2)C1c1ccccc1 (stereo not drawn) [Compound 18]
[1]
  IC50: 6.6 µM
[2]
  IC50: 3.2 µM

## Cc1ccc(C(=O)/C=C2/C(=O)N(c3ccc(Cl)cc3C)C2c2ccccc2)cc1 (stereo not drawn) [Compound 21]
[1]
  IC50: 30.9 µM

## COc1ccc(C(=O)/C=C2/C(=O)N(c3ccc(Cl)cc3C)C2c2ccccc2)cc1 (stereo not drawn) [Compound 22]
[1]
  IC50: 41.3 µM

## Cc1cc(Cl)ccc1N1C(=O)/C(=C/C(=O)c2ccc([N+](=O)[O-])cc2)C1c1ccccc1 (stereo not drawn) [Compound 24]
[1]
  IC50: 6.4 µM

## CC(=O)/C=C1/C(=O)N(c2cc(Cl)ccc2C)C1c1ccccc1 (stereo not drawn) [Compound 25]
[1]
  IC50: 11.1 µM
[2]
  IC50: 6.6 µM

## Cc1ccc(Cl)cc1N1C(=O)/C(=C/C(=O)c2ccccc2)C1c1ccccc1 (stereo not drawn) [Compound 26]
[1]
  IC50: 16.5 µM
[2]
  IC50: 9.5 µM

## O=C(/C=C1/C(=O)N(c2ccc(F)cc2)C1c1ccccc1)c1ccccc1 (stereo not drawn) [Compound 29]
[1]
  IC50: 9 µM
[2]
  IC50: 8.1 µM

## O=C(/C=C1/C(=O)N(c2ccc(F)cc2)C1c1ccccc1)c1ccc([N+](=O)[O-])cc1 (stereo not drawn) [Compound 32]
[1]
  IC50: 3.5 µM
[2]
  IC50: 3.8 µM

## O=C(/C=C1/C(=O)N(c2ccccc2F)C1c1ccccc1)c1ccc(F)cc1 (stereo not drawn) [Compound 33]
[1]
  IC50: 11.9 µM
[2]
  IC50: 12.5 µM

## O=C(/C=C1/C(=O)N(c2ccccc2F)C1c1ccccc1)c1ccc([N+](=O)[O-])cc1 (stereo not drawn) [Compound 34]
[1]
  IC50: 8.2 µM
[2]
  IC50: 6.6 µM

## O=C(/C=C1/C(=O)N(c2cc(Cl)cc(Cl)c2)C1c1ccccc1)c1ccc(F)cc1 (stereo not drawn) [Compound 37]
[1]
  IC50: 21.2 µM
[2]
  IC50: 17.8 µM

## O=C(/C=C1/C(=O)N(c2cc(Cl)cc(Cl)c2)C1c1ccccc1)c1ccc([N+](=O)[O-])cc1 (stereo not drawn) [Compound 38]
[1]
  IC50: 9 µM
[2]
  IC50: 4.6 µM

## COc1ccc(C(=O)/C=C2/C(=O)N(c3ccc(Br)cc3)C2c2ccccc2)cc1 (stereo not drawn) [Compound 39]
[1]
  IC50: > 30 µM
[2]
  IC50: > 30 µM

## O=C(/C=C1/C(=O)N(c2ccc(Br)cc2)C1c1ccccc1)c1ccc(F)cc1 (stereo not drawn) [Compound 40]
[1]
  IC50: 11.3 µM
[2]
  IC50: 13.2 µM

## O=C(/C=C1/C(=O)N(c2ccc(Br)cc2)C1c1ccccc1)c1ccc([N+](=O)[O-])cc1 (stereo not drawn) [Compound 41]
[1]
  IC50: 4.2 µM
[2]
  IC50: 5.1 µM

## O=C(/C=C1/C(=O)N(c2cccc(C(F)(F)F)c2)C1c1ccccc1)c1ccccc1 (stereo not drawn) [Compound 43]
[1]
  IC50: 14 µM
[2]
  IC50: 7.7 µM

## O=C(/C=C1/C(=O)N(c2cccc(C(F)(F)F)c2)C1c1ccccc1)c1ccc(F)cc1 (stereo not drawn) [Compound 44]
[1]
  IC50: 10.3 µM
[2]
  IC50: 7.3 µM

## O=C(/C=C1/C(=O)N(c2cccc(C(F)(F)F)c2)C1c1ccccc1)c1ccc([N+](=O)[O-])cc1 (stereo not drawn) [Compound 45]
[1]
  IC50: 4.4 µM
[2]
  IC50: 5.2 µM

## O=C(/C=C1/C(=O)N(Cc2ccccc2)C1c1ccccc1)c1ccc(F)cc1 (stereo not drawn) [Compound 52]
[1]
  IC50: 7.9 µM

## O=C(/C=C1/C(=O)N(Cc2ccccc2)C1c1ccccc1)c1ccc([N+](=O)[O-])cc1 (stereo not drawn) [Compound 53]
[1]
  IC50: 4.9 µM

## CC(=O)/C=C1/C(=O)N(Cc2ccccc2Cl)C1c1ccccc1 (stereo not drawn) [Compound 54]
[1]
  IC50: 11.2 µM
[2]
  IC50: 15.5 µM

## O=C(/C=C1/C(=O)N(Cc2ccccc2Cl)C1c1ccccc1)c1ccc(F)cc1 (stereo not drawn) [Compound 55]
[1]
  IC50: 10.5 µM
[2]
  IC50: 8.3 µM

## O=C(/C=C1/C(=O)N(Cc2ccccc2Cl)C1c1ccccc1)c1ccc([N+](=O)[O-])cc1 (stereo not drawn) [Compound 56]
[1]
  IC50: 2.9 µM
[2]
  IC50: 6.5 µM

## CCc1ccc(C2/C(=C\C(=O)c3ccc(F)cc3)C(=O)N2c2ccccc2C)cc1 (stereo not drawn) [Compound 67]
[1]
  IC50: 27.7 µM
[2]
  IC50: 11 µM

## CCc1ccc(C2/C(=C\C(=O)c3ccc([N+](=O)[O-])cc3)C(=O)N2c2ccccc2C)cc1 (stereo not drawn) [Compound 68]
[1]
  IC50: 13.6 µM
[2]
  IC50: 7.5 µM

## O=C(/C=C1/C(=O)N(c2ccccc2)C1c1ccc(O)cc1)c1ccc([N+](=O)[O-])cc1 (stereo not drawn) [Compound 75]
[1]
  IC50: 3.8 µM
[2]
  IC50: 5.4 µM

## O=C(/C=C1/C(=O)N(c2ccccc2)C1c1ccc(F)cc1)c1ccc(F)cc1 (stereo not drawn) [Compound 76]
[1]
  IC50: 14.3 µM
[2]
  IC50: 10.5 µM

## O=C(/C=C1/C(=O)N(c2ccccc2)C1c1ccc(F)cc1)c1ccc([N+](=O)[O-])cc1 (stereo not drawn) [Compound 77]
[1]
  IC50: 4.3 µM
[2]
  IC50: 2.9 µM

## Cc1ccccc1N1C(=O)/C(=C/C(=O)c2ccc(F)cc2)C1c1ccc(F)cc1 (stereo not drawn) [Compound 78]
[1]
  IC50: 6.2 µM
[2]
  IC50: 8.3 µM

## Cc1ccccc1N1C(=O)/C(=C/C(=O)c2ccc([N+](=O)[O-])cc2)C1c1ccc(F)cc1 (stereo not drawn) [Compound 79]
[1]
  IC50: 4.3 µM
[2]
  IC50: 5.1 µM

## O=C(/C=C1/C(=O)N(c2ccccc2)C1c1ccccc1F)c1ccc(F)cc1 (stereo not drawn) [Compound 80]
[1]
  IC50: 7.4 µM
[2]
  IC50: 10.9 µM

## O=C(/C=C1/C(=O)N(c2ccccc2)C1c1ccccc1F)c1ccc([N+](=O)[O-])cc1 (stereo not drawn) [Compound 81]
[1]
  IC50: 5.5 µM
[2]
  IC50: 7 µM

## Cc1ccccc1N1C(=O)/C(=C/C(=O)c2ccc(F)cc2)C1c1ccc(Br)cc1 (stereo not drawn) [Compound 85]
[1]
  IC50: 17.7 µM
[2]
  IC50: 14.4 µM

## Cc1ccccc1N1C(=O)/C(=C/C(=O)c2ccc([N+](=O)[O-])cc2)C1c1ccc(Br)cc1 (stereo not drawn) [Compound 86]
[1]
  IC50: 6.2 µM
[2]
  IC50: 5.3 µM

## Cc1ccc(CN2C(=O)/C(=C/C(=O)c3ccc([N+](=O)[O-])cc3)C2c2ccccc2)cc1 (stereo not drawn) [Compound 91]
[1]
  IC50: 9.7 µM
[2]
  IC50: 6.7 µM

## COc1ccc(CN2C(=O)/C(=C/C(=O)c3ccc([N+](=O)[O-])cc3)C2c2ccccc2)cc1 (stereo not drawn) [Compound 92]
[1]
  IC50: 7.3 µM
[2]
  IC50: 6.5 µM

## O=C(/C=C1/C(=O)N(Cc2ccc(F)cc2)C1c1ccccc1)c1ccc([N+](=O)[O-])cc1 (stereo not drawn) [Compound 93]
[1]
  IC50: 18.3 µM
[2]
  IC50: 8.7 µM

## COc1ccccc1CN1C(=O)/C(=C/C(=O)c2ccc([N+](=O)[O-])cc2)C1c1ccccc1 (stereo not drawn) [Compound 94]
[1]
  IC50: 8 µM
[2]
  IC50: 6.9 µM

## O=C(/C=C1/C(=O)N(Cc2ccccc2C(F)(F)F)C1c1ccccc1)c1ccc([N+](=O)[O-])cc1 (stereo not drawn) [Compound 95]
[1]
  IC50: 15.4 µM
[2]
  IC50: 2.5 µM

## O=C(/C=C1/C(=O)N(Cc2ccccc2F)C1c1ccccc1)c1ccc([N+](=O)[O-])cc1 (stereo not drawn) [Compound 96]
[1]
  IC50: 3.9 µM
[2]
  IC50: 3.7 µM

## O=C(/C=C1/C(=O)N(Cc2cccc(Cl)c2)C1c1ccccc1)c1ccc([N+](=O)[O-])cc1 (stereo not drawn) [Compound 97]
[1]
  IC50: 16 µM
[2]
  IC50: 3.2 µM

## O=C(/C=C1/C(=O)N(Cc2ccc(Cl)cc2)C1c1ccccc1)c1ccc([N+](=O)[O-])cc1 (stereo not drawn) [Compound 98]
[1]
  IC50: 11.2 µM
[2]
  IC50: 8.8 µM

## O=C(/C=C1/C(=O)N(Cc2ccc(Cl)cc2Cl)C1c1ccccc1)c1ccc([N+](=O)[O-])cc1 (stereo not drawn) [Compound 103]
[1]
  IC50: 18.5 µM
[2]
  IC50: 6.7 µM

## COc1ccc(Cc2nccc3cc(OC)c(OC)cc23)cc1OC [papaverin, reference compound]
[1]
  IC50: > 100 µM
[2]
  IC50: > 100 µM
